We go through two molecules from patent US6369101B1, “Therapeutic method to treat herpes virus infection” (Regents of the University of Minnesota, priority 1999, dated 2002).

One data set deals with Epstein-Barr Virus. Briefly: VCA expression in EBV-infected Daudi cells. The note with it: Epstein-Barr Virus, Daudi cells, VCA; test compounds in DMSO.
In the next data set the test system is Daudi cells. Kind of data set: CC50 in Daudi cells (Table 3). The data set is classed as cell-based. The note with it: Daudi cells, Epstein-Barr Virus section of Table 3.
A further data set deals with Human Cytomegalovirus. Briefly: CPE inhibition in stationary cells (visual), HCMV in HFF cells. Type of data set: cell-based. To be noted: test compounds in DMSO.
A further data set has as its system HSV-2 (MS strain). Briefly: Vaginal HSV-2 (MS) infection in guinea pigs, topical ointment. Type of data set: in vivo, guinea pig.
Another data set relates to Varicella-Zoster Virus. Kind of data set: CPE inhibition in stationary cells (visual), VZV in HFF cells. The data set is classed as cell-based. The note with it: test compounds in DMSO.
The next data set has as its system MEF cells. Briefly: CC50 in MEF cells (Table 3). The data set is classed as cell-based. The note with it: Mouse Cytomegalovirus section of Table 3.
The test system of a further data set is Mouse Cytomegalovirus. Briefly: CPE inhibition in stationary cells (visual), MCMV in MEF cells. To be noted: test compounds in DMSO. Type of data set: cell-based.

In brackets after ≈: the same amount, converted by molar mass.

One may read the EC50 as the midpoint of the concentration-response curve. A high value points to a need for much substance. For orientation: CC50 means the concentration giving 50% cytotoxicity. Read a low CC50 as greater toxicity to the cells.

From the text for Epstein-Barr Virus: Raji is a Burkitt's lymphoma cell line containing 60 EBV genome/cell, and was the primary cell used for screening antiviral activity against EBV early antigen (EA) expression. […] It spontaneously expresses EBV EA in 0.25-0.5% of the cells. It was used in follow-up studies to confirm activity. These cell lines respond to superinfection by EBV by expressing EA-diffuse component EA (D), EA restricted component EA (R), and viral capsid antigen (VCA). […] The cultures were fed twice weekly and the cell concentration was adjusted to 3×10^5/ml. The cells were kept at 37° C. in humidified atmosphere with 5% CO2.
Cells were infected with the P3HR-1 strain of HBV and the test compound was added after adsorption (45 minutes at 37° C.) and washing of the cell cultures. The cultures were incubated for two days in complete medium to allow viral gene expression. Following the 48 hours of incubation, the numbers of cells of each sample was counted and smears were made. Monoclonal antibodies to the different EA components and VCA were then added to the cells and then incubated and washed. This is followed by a fluorescein conjugated rabbit anti-mouse IgG antibody, and the number of fluorescence cells in the smear were counted. The total number of cells in the cultures positive for EA or VCA were then calculated and compared.
Method for HSV-2 (MS strain): Female Hartley outbred guinea pigs 26 days old and weighing approximately 350 to 400 grams each were obtained from Charles River Breeding Labs, Wilmington, Mass. The animals were housed singly and given feed and water ad lib.
2% Betulin and allobetulin ointment were prepared aseptically in polyethylene glycol (PEG) as ointment base and stored at room temperature until used.
Female guinea pigs weighing 200 g were inoculated intravaginally with HSV-2 (MS strain). One hour before viral inoculation the animals were swabbed using Dacron-polyester tipped applicator moistened in sterile saline to remove vaginal secretions. The animals were then infected with one drop of HSV-2 suspension containing 1×10^4 pfu, and the surface of the vaginal mucosa was slightly scarified with a sterile Greer Derma Pick® Skin Testing System (Greer Labs, Lenoir, N.C.).
The treatment of infected guinea pigs was started 18 hours after infection and continued twice daily for 3 days. […] Each experiment included uninfected control, infected and placebo controls. […] The swabs were stored at −80° C. until analyzed. The virus content of the specimens was measured by plaque assay in HEp-2 cells and the mean virus titer was calculated. […] The variable assessed was typical HSV vesicle formation, size, number and whether confluent, induration at the site of infection and scab formation.

With “acycloguanosine [Acyclovir, reference compound]”, in the data set on Epstein-Barr Virus, the EC50 stood at 1.4 µg/mL. For the same molecule, the CC50 in the data set on Daudi cells is above 100 µg/mL.

Consider `C=C(C)[C@@H]1CC[C@]2(CO)CC[C@]3(C)[C@H](CC[C@@H]4[C@@]5(C)CC[C@H](O)C(C)(C)[C@@H]5CC[C@]43C)[C@@H]12` [Betulin, lup-20(29)-ene-3β, 28-diol, reference compound], for which the EC50 with Human Cytomegalovirus was 0.0029 µg/mL (≈ 0.00655 µM); in the data set on Varicella-Zoster Virus, above 0.004 µg/mL; in the data set with Mouse Cytomegalovirus it was above 0.02 µg/mL. Moreover, the “effect on vaginal HSV-2 infection (in words)” value in the data set with HSV-2 (MS strain) (2% ointment twice daily for 3 days beginning 18 hours after infection) is “Significant effect”. In the data set with HSV-2 (MS strain) (by 6 to 8 days, 2% ointment twice daily for 3 days), the “typical lesions and virus content in the infected vaginal area” value is reported as “decreased significantly”. This molecule showed a CC50 with MEF cells of 0.08 µg/mL (≈ 0.181 µM).
